Assay results taken from ChEMBL document CHEMBL3987221, “The Australian National University Dept Of Immunology Pathogen Box Compounds Screened” (2018).
Activity calls are given as the source filed them. No rule for the calls is given here.

Legend:
[1] = molecular target: Ferrochelatase, mitochondrial (Homo sapiens) (UniProt P22830); settings: at 10 µM
Description: (§1) Compound was evaluated for the inhibition of human FECH at 10uM

[2] = molecular target: Porphobilinogen deaminase (Homo sapiens) (UniProt P08397); settings: at 100 µM
Description: (§2) Compound was evaluated for the inhibition of human HMBS at 100uM

[3] = molecular target: T1, Ferrochelatase, mitochondrial (Homo sapiens) (UniProt P22830); settings: at 10 µM; remark: listed apart in the source
T1 sequence (whole entry): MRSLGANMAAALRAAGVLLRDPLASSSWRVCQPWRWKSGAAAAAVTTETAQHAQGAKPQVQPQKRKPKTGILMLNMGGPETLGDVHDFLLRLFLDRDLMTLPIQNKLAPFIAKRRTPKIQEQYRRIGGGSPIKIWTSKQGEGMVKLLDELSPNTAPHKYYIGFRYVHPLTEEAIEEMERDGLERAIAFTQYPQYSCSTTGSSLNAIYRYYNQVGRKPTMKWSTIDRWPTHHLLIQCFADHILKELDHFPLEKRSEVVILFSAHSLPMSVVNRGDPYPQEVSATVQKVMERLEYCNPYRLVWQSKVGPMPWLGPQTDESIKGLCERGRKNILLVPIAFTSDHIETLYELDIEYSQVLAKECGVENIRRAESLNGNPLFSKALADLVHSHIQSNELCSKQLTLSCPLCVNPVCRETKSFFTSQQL
Description: as §1

[4] = molecular target: T2, Porphobilinogen deaminase (Homo sapiens) (UniProt P08397); settings: at 100 µM; remark: listed apart in the source
T2 sequence (whole entry): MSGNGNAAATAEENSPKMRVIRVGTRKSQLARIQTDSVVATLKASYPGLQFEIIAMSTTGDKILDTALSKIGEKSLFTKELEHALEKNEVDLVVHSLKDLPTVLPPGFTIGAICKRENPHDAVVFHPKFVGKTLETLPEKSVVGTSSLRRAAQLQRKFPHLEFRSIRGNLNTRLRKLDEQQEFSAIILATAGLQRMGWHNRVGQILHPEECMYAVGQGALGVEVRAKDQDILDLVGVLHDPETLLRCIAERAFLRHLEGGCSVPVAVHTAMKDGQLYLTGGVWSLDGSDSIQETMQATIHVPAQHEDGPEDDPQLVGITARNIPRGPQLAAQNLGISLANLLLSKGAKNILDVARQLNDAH
Description: as §2

Compound | inhibition [1] | inhibition [2] | inhibition [3] | inhibition [4]
MMV688978 | inactive | inactive |  | 
NS(=O)(=O)c1cccc(-c2ccc3ncc(N4CCOCC4)nc3c2)c1 |  |  | inactive | inactive
COC(=O)c1cccc2oc(-c3cccc(OC)c3NC(=O)c3cc(-c4ccccc4)on3)nc12 |  |  | inactive | inactive
O=C(Nc1cnc2ccccc2c1)c1cccc(-n2cnnn2)c1 |  |  | inactive | inactive
COc1cccc(-n2nnnc2S(C)(=O)=O)c1 |  |  | inactive | inactive
O=C(c1ccc(F)cc1)N(CCNc1ccccc1)c1ccccc1 |  |  | inactive | inactive
NC(=O)c1cc(Br)ccc1OCCOc1ccccc1 |  |  | inactive | inactive
Cc1nc(-c2ccccn2)nc(N(C)CCc2ccccc2)c1Cl |  |  | inactive | inactive
O=C(NCCN1CCCC1)c1cc(NCCCCN2CCC(F)(F)CC2)nc2ccc(Cl)cc12 |  |  | inactive | inactive
Nc1ccc2ncnc(Nc3ccc(OCc4cccc(F)c4)c(Cl)c3)c2c1 |  |  | inactive | inactive
CC(C)(C)OC(=O)N1CCN(c2cc(-c3ccc(Oc4ccccc4)cc3)n[nH]2)CC1 |  |  | inactive | inactive
O=C(Nc1nnc(-c2ccc(Cl)cc2)o1)c1cccc(C(F)(F)F)c1 |  |  | inactive | inactive
O=C(OCc1ccccc1)N1CCC(c2cc(-c3ccncc3)c(-c3ccc(F)cc3)[nH]2)CC1 |  |  | inactive | inactive
c1ccc(Oc2ccc(-c3cc(N4CCNCC4)[nH]n3)cc2)cc1 |  |  | inactive | inactive
CNCCC(Oc1ccc(C(F)(F)F)cc1)c1ccccc1 (configuration not stated) |  |  | inactive | inactive
O=C(c1ccc(NCCO)cc1)C1C[C@H]1c1ccc(Cl)cc1 (some centres not stated) |  |  | inactive | inactive
